Measurements taken from PubChem BioAssay AID1645868 (Buhrlage Lab, Dana-Farber Cancer Institute and Novartis …, 2021).
pIC50: −log10 of the molar value. Calls of active or inactive are those of the source.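 The calls were made as follows: active = maximal percent inhibition of the deubiquitinase OTUD3 of at least 30% across the tested doses; inactive = the rest.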

The compounds below were run against OTU domain-containing protein 3 (Homo sapiens) (UniProt Q5T2D3) (assay: Validation of screening hits, potency titration, in vitro enzymatic, OTU domain-containing protein 3 DUB inhibitors (AID 1645868)). Conditions: purified OTUD3, ubiquitin-rhodamine cleavage fluorescence, 2 h.
Chain of OTU domain-containing protein 3 (Homo sapiens) (Q5T2D3 whole entry, looked up, the tested form may be a part): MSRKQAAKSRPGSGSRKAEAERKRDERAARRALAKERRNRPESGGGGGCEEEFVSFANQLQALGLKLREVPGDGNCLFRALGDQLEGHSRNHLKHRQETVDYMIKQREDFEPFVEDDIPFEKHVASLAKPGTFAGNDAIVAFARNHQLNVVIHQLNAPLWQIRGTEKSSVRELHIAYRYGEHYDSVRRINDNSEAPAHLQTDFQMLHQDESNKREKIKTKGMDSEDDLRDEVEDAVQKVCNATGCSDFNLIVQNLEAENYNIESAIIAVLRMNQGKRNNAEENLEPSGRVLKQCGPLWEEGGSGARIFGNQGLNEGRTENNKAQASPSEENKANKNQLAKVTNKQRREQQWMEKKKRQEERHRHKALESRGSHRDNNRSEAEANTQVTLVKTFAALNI

Q: How did the pIC50 turn out when `Nc1ncnc(SCc2ccc(Cl)cc2)n1` was run?
A: 4.53

Q: How did the pIC50 turn out when `CCOCCCn1c(SCC(=O)Nc2ccccc2C(F)(F)F)nc2ccccc2c1=O` was run?
A: 4.71

Q: How did the pIC50 turn out when `Cc1ccc(CNC(=O)CCCn2c(=O)c3sccc3n(CC(=O)Nc3cc(Cl)ccc3C)c2=O)cc1` was run?
A: 5.02

Q: Which IC50 does the source give for `Cn1c(=O)[nH]c2nncnc2c1=O` here?
A: > 50 µM (inactive)

Q: How did the IC50 turn out when `CN1C(=O)COc2ccc(NC(=O)c3cc(-c4ccccc4)on3)cc21` was run?
A: > 50 µM (inactive)

Q: `Cc1ccc(Nc2nc(O)c(CC(=O)Nc3ccccc3C)s2)cc1C` was tested. Which pIC50 did it give?
A: 4.70

Q: Which IC50 does the source give for `COc1c2n(c3ccccc13)[C@@]1(O)C(=O)N(C)C(=O)[C@@]1(O)c1c-2n(C)c2ccc(Cl)cc12` here?
A: > 50 µM (inactive)

Q: With `CN(C)c1ccc(CCN2CCc3nc4cccnc4cc3C2)cc1` as the compound, how does the IC50 read?
A: > 50 µM (inactive)

Q: Which IC50 does the source give for `Cn1cc(-c2cnc(-c3cccc(F)c3)nc2)cc1C(=O)NCc1cccnc1` here?
A: > 50 µM (inactive)

Q: Which IC50 does the source give for `CC(=O)O[C@H]1[C@]2(O)C[C@]34SS[C@](CO)(C(=O)N3[C@@H]2C[C@@]12O[C@@H](C)C(C)(C)C2=O)N(C)C4=O` here?
A: > 50 µM (inactive)

Q: `COc1ccc(CNC(=O)c2ccccc2N2C(=O)N3CCc4c([nH]c5ccccc45)[C@@]3(C)C2=O)cc1` was tested. Which pIC50 did it give?
A: 4.38

Q: How did the pIC50 turn out when `COc1ccc(C2/C(=C(\O)c3ccccc3)C(=O)C(=O)N2c2nc3ccc(F)cc3s2)cc1` (stereo unspecified) was run?
A: 4.47

Q: How did the IC50 turn out when `CC1CCc2c(sc3ncnc(OCc4cccc([N+](=O)[O-])c4)c23)C1` (stereo unspecified) was run?
A: > 50 µM (inactive)

Q: For `CC(C)(C)N=C1Nc2ncccc2NC12CCCN(C(=O)c1ccccc1)C2` (stereo unspecified), which IC50 is on record?
A: > 50 µM (inactive)

Q: For `COc1cc(OC)c2c(c1)C(=O)C1=C(COC(C)(O)C1)C2=O` (stereo unspecified), which IC50 is on record?
A: > 50 µM (inactive)

Q: `Cc1nn(C)c2c1[C@@H](c1ccc(F)cc1)[C@H](NC(=O)c1ccccc1)C(=O)N2` was tested. Which IC50 did it give?
A: > 50 µM (inactive)

Q: `COc1cccc(NC(=O)C2C3C=CC4(O3)C2C(=O)N(CCc2ccccc2Cl)C4C(=O)NC2CCCCC2)c1` (stereo unspecified) was tested. Which pIC50 did it give?
A: 4.53

Q: Which IC50 does the source give for `O=C(CNS(=O)(=O)c1ccc(F)cc1)N1CCCC(c2nnc3ccccn23)C1` (stereo unspecified) here?
A: > 50 µM (inactive)

Q: With `N[C@@H](Cc1ccccc1)C(=O)N1CCC2(CC1)CN(C(=O)c1ccc(Cl)cc1)CCO2` as the compound, how does the IC50 read?
A: > 50 µM (inactive)

Q: For `CC(=O)c1ccc(NC(=O)CSc2nc(-c3ccccc3)nc3c2COC(C)(C)C3)cc1`, which IC50 is on record?
A: > 50 µM (inactive)

Q: How did the IC50 turn out when `Cc1sc(-c2ccc(Cl)nc2)nc1OC(=O)c1ccc(F)cc1F` was run?
A: > 50 µM (inactive)

Q: With `COc1ccc(OC)c(NC(=O)C2Oc3ccccc3NC2=O)c1` (stereo unspecified) as the compound, how does the IC50 read?
A: > 50 µM (inactive)

Q: `COc1ccc(-c2ocnc2C(=O)Nc2cccc(Cl)c2C)cc1OC` was tested. Which IC50 did it give?
A: > 50 µM (inactive)

Q: How did the IC50 turn out when `N#Cc1cc(C(=O)c2ccc(Cl)cc2)c[nH]1` was run?
A: > 50 µM (inactive)

Q: How did the IC50 turn out when `O=C(NCc1ccc(CN2CCCC2)cc1)c1cc2ccccc2[nH]c1=O` was run?
A: > 50 µM (inactive)

Q: `O=C(Nc1ccc(Oc2cccc3cccnc23)cc1)c1cccs1` was tested. Which IC50 did it give?
A: > 50 µM (inactive)

Q: `O=C(NCc1ccc2c(c1)OCO2)c1nc(-c2ccccc2)n(-c2ccccc2)n1` was tested. Which IC50 did it give?
A: > 50 µM (inactive)

Q: Which IC50 does the source give for `COc1cccc(NC(=O)c2nnn(-c3ccccc3)n2)c1` here?
A: > 50 µM (inactive)

Q: `Cc1ccc2cccc(OCc3nnc(SCC(=O)c4ccc(Cl)cc4)n3C)c2n1` was tested. Which pIC50 did it give?
A: 4.59

Q: Which IC50 does the source give for `O=C(Nc1ccc(-c2cn3ccccc3n2)cc1)C1C=C2C=C(Br)C=CC2OC1=O` (stereo unspecified) here?
A: > 50 µM (inactive)

Q: `Cc1ccc2nc(CNC(=O)c3ccccc3-c3nc(-c4ccc(F)cc4)no3)[nH]c2c1` was tested. Which pIC50 did it give?
A: 4.40

Q: Which IC50 does the source give for `O=C(COC(=O)c1cc(Cl)c2c(c1)OCO2)Nc1ccc2[nH]c(=O)[nH]c2c1` here?
A: > 50 µM (inactive)

Q: With `C[C@H](NC(=O)Cc1ccccc1F)c1nc2cc(-c3ccccc3F)ncn2n1` as the compound, how does the IC50 read?
A: > 50 µM (inactive)

Q: With `COc1cc(NC(=O)c2cc(-c3ccncc3)n(-c3ccc(F)cc3)n2)cc(OC)c1` as the compound, how does the IC50 read?
A: > 50 µM (inactive)

Q: `Cc1ccccc1Cc1nc(-c2ccc(=O)[nH]c2)no1` was tested. Which IC50 did it give?
A: > 50 µM (inactive)

Q: Which IC50 does the source give for `N#Cc1ccccc1COC(=O)c1ccc2ccccc2n1` here?
A: > 50 µM (inactive)

Q: Which IC50 does the source give for `Cc1cc(SCc2ncon2)c(C)cc1Cl` here?
A: > 50 µM (inactive)

Q: With `CCOC(=O)c1ccc(-n2c(=O)c(C#N)cc3c(=O)n4ccccc4nc32)cc1` as the compound, how does the IC50 read?
A: > 50 µM (inactive)

Q: For `COc1ccccc1-c1nc2c3c(ncn2n1)Oc1c(c(C)nn1-c1ccccc1)C3c1cccnc1` (stereo unspecified), which IC50 is on record?
A: > 50 µM (inactive)

Q: With `COc1ccccc1-c1nc(-c2nnn(Cc3ccc(C)cc3)c2C)no1` as the compound, how does the IC50 read?
A: > 50 µM (inactive)

Q: Which IC50 does the source give for `Cc1ccc(Cn2nnc(C(=O)NCc3ccco3)c2-n2cccc2)cc1` here?
A: > 50 µM (inactive)

Q: For `CC(C)(C)C(=O)C1C2C(=O)N(Cc3ccccc3)C(=O)C2C2c3ccccc3C=CN12` (stereo unspecified), which IC50 is on record?
A: > 50 µM (inactive)

Q: How did the pIC50 turn out when `O=C(CN1C=NC2=NS(=O)(=O)c3ccccc3N21)Nc1cc(F)ccc1F` was run?
A: 4.50

Q: How did the pIC50 turn out when `O=S(=O)(c1cccc(F)c1)N1CCc2nc3ccccc3n2CC1` was run?
A: 4.77

Q: With `COc1ccc(NC(=O)c2nnc(C(=O)NCCN3CCCCCC3)s2)cc1` as the compound, how does the pIC50 read?
A: 4.41

Q: How did the pIC50 turn out when `COC(=O)c1ccc2c(=O)n(CCCCCC(=O)NCCc3ccc(S(N)(=O)=O)cc3)c(=O)[nH]c2c1` was run?
A: 4.90
